Data from BindingDB's records for doi:10.1016/j.bmcl.2017.11.009 (De Montfort University, 2017).

Assay: Inhibition of recombinant human CYP1B1 expressed in HEK293 cells assessed as potentiation of cisplatin-induced cytotoxicity by measuring cisplatin EC50 by MTT assay (Rvb = 65.01 +/- 7.01 uM)

SMILES | EC50 [µM]
COc1ccc(/C=C/C(=O)c2ccncc2)c(OC)c1OC | 10
COc1cc(/C=C/C(=O)c2ccncc2)cc(OC)c1 | 10
COc1ccccc1/C=C/C(=O)c1ccncc1 | 10
COc1cccc(/C=C/C(=O)c2ccncc2)c1 | 10

Assay: Inhibition of recombinant human CYP1A1 expressed in HEK293 cells assessed as reduction in benzo(a)pyrene-induced toxicity by measuring B[a]P EC50 at 2 times IC50 by MTT assay (Rvb = 0.8 +/- 0.14 uM)

SMILES | EC50 [µM]
CCOc1cc(/C=C/C(=O)c2ccncc2)cc(OC)c1OCC | 14
CCOc1cc(/C=C/C(=O)c2ccncc2)cc(OC)c1OC | 14
COc1cc(/C=C/C(=O)c2ccncc2)cc(OC)c1OC | 14
CCOc1cc(/C=C/C(=O)c2ccncc2)cc(OCC)c1OCC | 14
